The results in this text go back to article PMC9154774, “4-(3-Alkyl/benzyl-guanidino)benzenesulfonamides as selective carbonic anhydrase VII inhibitors” (Journal of Enzyme Inhibition and Medicinal Chemistry, 2022).

The target in one assay is T1, CA II (hCA II) (Homo sapiens, UniProt P00918).
T1 construct: gene CA2; recombinant, obtained in-house as reported earlier
Put plainly: stopped-flow CO2 hydration assay, phenol red. The format is biochemical. An excerpt:
stopped-flow CO2 hydration assay, phenol red on CA II (hCA II)
What is called Ki is a measure of affinity in units of concentration, obtained from inhibition or displacement. Turning to `N=C(NCc1ccccc1)Nc1ccc(S(N)(=O)=O)cc1` [7a, 4-(3-Benzyl-guanidino)benzenesulfonamide], the Ki is 7.7 nM.

`COc1ccc(CNC(=N)Nc2ccc(S(N)(=O)=O)cc2)cc1` [7b, 4-(3-(4-Methoxybenzyl)guanidino)benzenesulfonamide]: the inhibitory constant (Ki) is 17.7 nM.

Regarding `N=C(NCc1ccc(F)cc1)Nc1ccc(S(N)(=O)=O)cc1` [7c, 4-(3-(4-Fluorobenzyl)guanidino)benzenesulfonamide], the Ki was determined as 59.1 nM.

With `N=C(NCc1cccc(F)c1)Nc1ccc(S(N)(=O)=O)cc1` [7d, 4-(3-(3-Fluorobenzyl)guanidino)benzenesulfonamide], affinity was put at a Ki of 1.6 nM.

On to `N=C(NCc1ccccc1F)Nc1ccc(S(N)(=O)=O)cc1` [7e, 4-(3-(2-Fluorobenzyl)guanidino)benzenesulfonamide], for which the inhibitory constant (Ki) stood at 3.2 nM.

Regarding `Cc1cccc(CNC(=N)Nc2ccc(S(N)(=O)=O)cc2)c1` [7f, 4-(3-(3-Methylbenzyl)guanidino)benzenesulfonamide], the affinity corresponds to a Ki of 0.3 nM.

Regarding `Cc1ccccc1CNC(=N)Nc1ccc(S(N)(=O)=O)cc1` [7g, 4-(3-(2-Methylbenzyl)guanidino)benzenesulfonamide], the inhibition constant Ki stood at 0.07 nM.

`CC(NC(=N)Nc1ccc(S(N)(=O)=O)cc1)c1ccccc1` (stereo not drawn) [7h, 4-(3-(1-Phenylethyl)guanidino)benzenesulfonamide] showed a Ki of 9.6 nM.

On to `Cc1cccc(CN(C)C(=N)Nc2ccc(S(N)(=O)=O)cc2)c1` [7i, 4-(3-Methyl-3-(3-methylbenzyl)guanidino)benzenesulfonamide], for which the inhibitory constant (Ki) stood at 0.08 nM.

On to `N=C(Nc1ccc(S(N)(=O)=O)cc1)N(Cc1ccccc1)Cc1ccccc1` [7j, 4-(3,3-Dibenzyl-guanidino)benzenesulfonamide], for which the Ki was 0.6 nM.

As to `N=C(NCCOc1ccccc1)Nc1ccc(S(N)(=O)=O)cc1` [7k, 4-(3-(2-Phenoxyethyl)guanidino)benzenesulfonamide], affinity was put at a Ki of 6.9 nM.

The compound `CCCCCCCCNC(=N)Nc1ccc(S(N)(=O)=O)cc1` [7l, 4-(3-octylguanidino)benzenesulfonamide] returned an inhibitory constant (Ki) of 0.9 nM.

The compound `CCCCCCCCCCCCNC(=N)Nc1ccc(S(N)(=O)=O)cc1` [7m, 4–(3-Dodecylguanidino)benzenesulfonamide] had a Ki of 0.4 nM.

`CCCCCCCCCCCCCCCCNC(=N)Nc1ccc(S(N)(=O)=O)cc1` [7n, 4-(3-hexadecylguanidino)benzenesulfonamide] registered a Ki of 0.06 nM.

Turning to `N=C(Nc1ccc(S(N)(=O)=O)cc1)N1CCN(Cc2ccccc2)CC1` [7o, 4-Benzyl-N-(4-sulfamoylphenyl)piperazine-1-carboximidamide], the Ki came out at 0.1 nM.

In a further assay the target is T2, CA I (hCA I) (Homo sapiens, UniProt P00915).
T2 construct: gene CA1; recombinant, obtained in-house as reported earlier
T2 sequence (P00915 2-261): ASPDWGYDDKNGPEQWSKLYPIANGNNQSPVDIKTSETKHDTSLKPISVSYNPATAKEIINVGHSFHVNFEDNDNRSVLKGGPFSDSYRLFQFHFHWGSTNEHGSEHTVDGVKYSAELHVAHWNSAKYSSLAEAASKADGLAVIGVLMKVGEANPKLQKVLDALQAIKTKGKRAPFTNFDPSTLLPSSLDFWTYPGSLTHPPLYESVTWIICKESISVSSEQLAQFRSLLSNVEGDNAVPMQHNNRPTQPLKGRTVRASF
Nature of the assay: stopped-flow CO2 hydration assay, phenol red. It is filed as biochemical. An excerpt:
stopped-flow CO2 hydration assay, phenol red on CA I (hCA I)
Compound `N=C(NCc1ccccc1)Nc1ccc(S(N)(=O)=O)cc1` [7a, 4-(3-Benzyl-guanidino)benzenesulfonamide] yielded a Ki of 746 nM.

With `COc1ccc(CNC(=N)Nc2ccc(S(N)(=O)=O)cc2)cc1` [7b, 4-(3-(4-Methoxybenzyl)guanidino)benzenesulfonamide], the inhibitory constant (Ki) was determined as 699 nM.

For the compound `N=C(NCc1ccc(F)cc1)Nc1ccc(S(N)(=O)=O)cc1` [7c, 4-(3-(4-Fluorobenzyl)guanidino)benzenesulfonamide], the Ki came to 989 nM.

The compound `N=C(NCc1cccc(F)c1)Nc1ccc(S(N)(=O)=O)cc1` [7d, 4-(3-(3-Fluorobenzyl)guanidino)benzenesulfonamide] gave a Ki of 782 nM.

On to `N=C(NCc1ccccc1F)Nc1ccc(S(N)(=O)=O)cc1` [7e, 4-(3-(2-Fluorobenzyl)guanidino)benzenesulfonamide], for which the affinity corresponds to a Ki of 2990 nM.

`Cc1cccc(CNC(=N)Nc2ccc(S(N)(=O)=O)cc2)c1` [7f, 4-(3-(3-Methylbenzyl)guanidino)benzenesulfonamide] yielded a Ki of 2930 nM.

With `Cc1ccccc1CNC(=N)Nc1ccc(S(N)(=O)=O)cc1` [7g, 4-(3-(2-Methylbenzyl)guanidino)benzenesulfonamide], the affinity corresponds to a Ki of 3160 nM.

`CC(NC(=N)Nc1ccc(S(N)(=O)=O)cc1)c1ccccc1` (stereo not drawn) [7h, 4-(3-(1-Phenylethyl)guanidino)benzenesulfonamide] displayed an inhibition constant Ki of 1320 nM.

As for `Cc1cccc(CN(C)C(=N)Nc2ccc(S(N)(=O)=O)cc2)c1` [7i, 4-(3-Methyl-3-(3-methylbenzyl)guanidino)benzenesulfonamide], the affinity corresponds to a Ki of 1140 nM.

As to `N=C(Nc1ccc(S(N)(=O)=O)cc1)N(Cc1ccccc1)Cc1ccccc1` [7j, 4-(3,3-Dibenzyl-guanidino)benzenesulfonamide], affinity was put at a Ki of 5850 nM.

For `N=C(NCCOc1ccccc1)Nc1ccc(S(N)(=O)=O)cc1` [7k, 4-(3-(2-Phenoxyethyl)guanidino)benzenesulfonamide], the Ki worked out at 4180 nM.

In turn, `CCCCCCCCNC(=N)Nc1ccc(S(N)(=O)=O)cc1` [7l, 4-(3-octylguanidino)benzenesulfonamide] showed an inhibition constant (Ki) of 730 nM.

Compound `CCCCCCCCCCCCNC(=N)Nc1ccc(S(N)(=O)=O)cc1` [7m, 4–(3-Dodecylguanidino)benzenesulfonamide] showed a Ki of 930 nM.

Compound `CCCCCCCCCCCCCCCCNC(=N)Nc1ccc(S(N)(=O)=O)cc1` [7n, 4-(3-hexadecylguanidino)benzenesulfonamide] yielded a Ki of 2150 nM.

Compound `N=C(Nc1ccc(S(N)(=O)=O)cc1)N1CCN(Cc2ccccc2)CC1` [7o, 4-Benzyl-N-(4-sulfamoylphenyl)piperazine-1-carboximidamide] displayed an inhibition constant Ki of 3680 nM.

The target of another assay is T3, CA VII (hCA VII) (Homo sapiens, UniProt P43166).
T3 construct: gene CA7; recombinant, obtained in-house as reported earlier
T3 sequence (P43166 whole entry): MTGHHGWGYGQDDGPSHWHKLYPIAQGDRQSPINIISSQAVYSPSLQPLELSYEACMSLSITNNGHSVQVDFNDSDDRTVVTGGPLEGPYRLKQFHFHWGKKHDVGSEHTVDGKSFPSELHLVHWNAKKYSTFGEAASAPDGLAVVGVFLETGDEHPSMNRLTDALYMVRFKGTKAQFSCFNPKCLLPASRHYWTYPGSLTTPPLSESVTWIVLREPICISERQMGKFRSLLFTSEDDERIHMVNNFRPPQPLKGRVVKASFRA
Nature of the assay: stopped-flow CO2 hydration assay, phenol red. It is filed as biochemical. An excerpt:
stopped-flow CO2 hydration assay, phenol red on CA VII (hCA VII)
`N=C(NCc1ccccc1)Nc1ccc(S(N)(=O)=O)cc1` [7a, 4-(3-Benzyl-guanidino)benzenesulfonamide] had a Ki of 10.1 nM.

The compound `COc1ccc(CNC(=N)Nc2ccc(S(N)(=O)=O)cc2)cc1` [7b, 4-(3-(4-Methoxybenzyl)guanidino)benzenesulfonamide] gave a Ki of 25.1 nM.

`N=C(NCc1ccc(F)cc1)Nc1ccc(S(N)(=O)=O)cc1` [7c, 4-(3-(4-Fluorobenzyl)guanidino)benzenesulfonamide] returned a Ki of 15 nM.

`N=C(NCc1cccc(F)c1)Nc1ccc(S(N)(=O)=O)cc1` [7d, 4-(3-(3-Fluorobenzyl)guanidino)benzenesulfonamide] displayed a Ki of 60.7 nM.

`N=C(NCc1ccccc1F)Nc1ccc(S(N)(=O)=O)cc1` [7e, 4-(3-(2-Fluorobenzyl)guanidino)benzenesulfonamide] gave an inhibition constant Ki of 44.9 nM.

Compound `Cc1cccc(CNC(=N)Nc2ccc(S(N)(=O)=O)cc2)c1` [7f, 4-(3-(3-Methylbenzyl)guanidino)benzenesulfonamide] displayed an inhibition constant (Ki) of 0.9 nM.

Turning to `Cc1ccccc1CNC(=N)Nc1ccc(S(N)(=O)=O)cc1` [7g, 4-(3-(2-Methylbenzyl)guanidino)benzenesulfonamide], affinity was put at a Ki of 0.4 nM.

Compound `CC(NC(=N)Nc1ccc(S(N)(=O)=O)cc1)c1ccccc1` (stereo not drawn) [7h, 4-(3-(1-Phenylethyl)guanidino)benzenesulfonamide] yielded an inhibition constant Ki of 1.1 nM.

Compound `Cc1cccc(CN(C)C(=N)Nc2ccc(S(N)(=O)=O)cc2)c1` [7i, 4-(3-Methyl-3-(3-methylbenzyl)guanidino)benzenesulfonamide] returned an inhibition constant Ki of 0.7 nM.

`N=C(Nc1ccc(S(N)(=O)=O)cc1)N(Cc1ccccc1)Cc1ccccc1` [7j, 4-(3,3-Dibenzyl-guanidino)benzenesulfonamide] returned a Ki of 3.2 nM.

Take `N=C(NCCOc1ccccc1)Nc1ccc(S(N)(=O)=O)cc1` [7k, 4-(3-(2-Phenoxyethyl)guanidino)benzenesulfonamide]: the Ki was found to be 8.7 nM.

`CCCCCCCCNC(=N)Nc1ccc(S(N)(=O)=O)cc1` [7l, 4-(3-octylguanidino)benzenesulfonamide]: the affinity, expressed as Ki, was 2.2 nM.

`CCCCCCCCCCCCNC(=N)Nc1ccc(S(N)(=O)=O)cc1` [7m, 4–(3-Dodecylguanidino)benzenesulfonamide] gave a Ki of 0.2 nM.

As to `CCCCCCCCCCCCCCCCNC(=N)Nc1ccc(S(N)(=O)=O)cc1` [7n, 4-(3-hexadecylguanidino)benzenesulfonamide], the affinity, expressed as Ki, was 0.08 nM.

In the case of `N=C(Nc1ccc(S(N)(=O)=O)cc1)N1CCN(Cc2ccccc2)CC1` [7o, 4-Benzyl-N-(4-sulfamoylphenyl)piperazine-1-carboximidamide], the affinity corresponds to a Ki of 0.06 nM.
